The values that follow come from patent US20250235460A1, “COMBINATION THERAPY USING GLUCOSE-DEPENDENT INSULINOTROPIC POLYPEPTIDE RECEPTOR ANTAGONIST COMPOUNDS AND GLP-1 RECEPTOR AGONIST COMPOUNDS” (Pfizer Inc., priority 2024, published 2025).

For assay [1], the target named is human GLP-1R (Homo sapiens, UniProt P43220, G168S). In words: CHO GLP-1R Clone H6 cAMP HTRF agonist assay (Assay 1, high receptor density). Format: cell-based. Conditions: for EC50: CHO GLP-1R clone H6, cAMP HTRF, geometric mean; for Emax: CHO GLP-1R clone H6, arithmetic mean, relative to saturating GLP-1 (1 μM), read-out: Assay 1 Emax (%). The gist of the method:
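Two significant figures are used throughout. Each EC50 is the geometric mean of its replicates, and each Emax is the arithmetic mean.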

For assay [2], the target named is human GLP-1R (Homo sapiens, UniProt P43220, L260F). Description: CHO GLP-1R Clone C6 cAMP HTRF agonist assay (Assay 2, low receptor density). Conditions: for EC50: CHO GLP-1R clone C6, cAMP HTRF, geometric mean; for Emax: CHO GLP-1R clone C6, arithmetic mean, relative to saturating GLP-1 (1 μM). The assay is classed as cell-based. From the text: In Table 5 and Table 6, assay data are presented to two (2) significant figures as the geometric mean (EC50s) and arithmetic mean (Emax) based on the number of replicates listed (Number). A blank cell means there was no data for that Example or the Emax was not calculated.
Chain of human GLP-1R (Homo sapiens, UniProt P43220, L260F) (P43220 24-463 L260F): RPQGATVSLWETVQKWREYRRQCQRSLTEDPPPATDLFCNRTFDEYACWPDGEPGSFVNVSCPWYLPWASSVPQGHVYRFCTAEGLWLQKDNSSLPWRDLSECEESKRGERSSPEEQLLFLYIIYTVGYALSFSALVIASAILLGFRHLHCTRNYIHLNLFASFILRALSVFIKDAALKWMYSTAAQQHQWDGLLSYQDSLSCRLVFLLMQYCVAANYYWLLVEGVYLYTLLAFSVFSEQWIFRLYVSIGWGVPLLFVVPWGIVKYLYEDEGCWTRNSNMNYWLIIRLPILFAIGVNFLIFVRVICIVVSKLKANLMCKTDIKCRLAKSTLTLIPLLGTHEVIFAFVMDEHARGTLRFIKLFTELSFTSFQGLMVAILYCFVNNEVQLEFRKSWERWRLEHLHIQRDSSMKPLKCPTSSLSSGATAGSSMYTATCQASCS

Chain of human GLP-1R (Homo sapiens, UniProt P43220, G168S) (P43220 24-463 G168S): as the sequence (P43220 24-463 L260F) above, with G145S, F237L counted along it

For the molecule `O=C(O)c1ccc2nc(CN3CCC(c4cccc(OCc5ccc(Cl)cc5F)n4)CC3)n(Cc3ccc(Cl)cn3)c2c1` [Compound 277B, 2-[(4-{6-[(4-chloro-2-fluorobenzyl)oxy]pyridin-2-yl}piperidin-1-yl)methyl]-1-[(5-chloropyridin-2-yl)methyl]-1H-benzimidazole-6-carboxylic acid], in assay [1], the EC50 was determined as 8.1 nM and the Emax stood at 64%. In assay [2], this molecule had an EC50 of 230 nM and an Emax of 77%.
For `CN1CCC(CCn2c(CN3CCC(c4cccc(OCc5ccc(Cl)cc5F)n4)CC3)nc3ccc(C(=O)O)cc32)CC1` [Compound 282B, 2-[(4-{6-[(4-chloro-2-fluorobenzyl)oxy]pyridin-2-yl}piperidin-1-yl)methyl]-1-[2-(1-methylpiperidin-4-yl)ethyl]-1H-benzimidazole-6-carboxylic acid], in that order: 15 nM, 83%, 230 nM and 110%.
For `CCOC(C)Cn1c(CN2CCC(c3cccc(OCc4ccc(Cl)cc4F)n3)CC2)nc2ccc(C(=O)O)cc21` (centres unmarked) [Compound 293B, 2-[(4-{6-[(4-chloro-2-fluorobenzyl)oxy]pyridin-2-yl}piperidin-1-yl)methyl]-1-(2-ethoxypropyl)-1H-benzimidazole-6-carboxylic acid] the same measures were 56 nM, 81%, 590 nM and 85%.
For `C[C@H]1CN(c2ccc(F)c(OCc3ccc(F)cc3F)n2)CCN1Cc1nc2ccc(C(=O)O)cc2n1C[C@@H]1CCO1` [Compound 133B, 2-{[(2S)-4-{6-[(2,4-difluorobenzyl)oxy]-5-fluoropyridin-2-yl}-2-methylpiperazin-1-yl]methyl}-1-[(2S)-oxetan-2-ylmethyl]-1H-benzimidazole-6-carboxylic acid], in assay [1], it took 190 nM to reach a half-maximal effect (EC50) and the Emax was 91%. In assay [2], this molecule displayed an EC50 of 1400 nM and an Emax of 47%.
Regarding `CCc1nc(Cn2c(CN3CCC(c4cccc(OCc5ccc(Cl)cc5F)n4)CC3)nc3ccc(C(=O)O)cc32)no1` [Compound 263B, 2-[(4-{6-[(4-chloro-2-fluorobenzyl)oxy]pyridin-2-yl}piperidin-1-yl)methyl]-1-[(5-ethyl-1,2,4-oxadiazol-3-yl)methyl]-1H-benzimidazole-6-carboxylic acid], in assay [1], a half-maximal response (EC50) required 33 nM and the Emax stood at 80%. Also, in assay [2], the EC50 stood at 670 nM and the Emax came out at 110%.
For the molecule `O=C(O)c1ccc2nc(CN3CCC(c4cccc(OCc5ccc(Cl)cc5F)n4)CC3)n(CCC3CCCCO3)c2c1` (centres unmarked) [Compound 280B, 2-[(4-{6-[(4-chloro-2-fluorobenzyl)oxy]pyridin-2-yl}piperidin-1-yl)methyl]-1-[2-(tetrahydro-2H-pyran-2-yl)ethyl]-1H-benzimidazole-6-carboxylic acid], in assay [1], the EC50 was determined as 11 nM and the Emax is 65%. Further, in assay [2], a half-maximal effect (EC50) was put at 380 nM and the Emax was determined as 96%.
Consider `N#Cc1ccc(COc2nc(C3CCN(Cc4nc5ccc(C(=O)O)cc5n4C[C@@H]4CCO4)CC3)ccc2F)c(F)c1` [Compound 113B, 2-[(4-{6-[(4-cyano-2-fluorobenzyl)oxy]-5-fluoropyridin-2-yl}piperidin-1-yl)methyl]-1-[(2S)-oxetan-2-ylmethyl]-1H-benzimidazole-6-carboxylic acid], for which, in assay [1], the midpoint of the response, the EC50, lay at 3.9 nM and the Emax is 82%. In assay [2], this molecule came in with a 50% effective concentration (EC50) of 45 nM and an Emax of 82%.
As for `CCn1cnnc1Cn1c(CN2CCN(c3cccc(OCc4ccc(Cl)cc4F)n3)C[C@@H]2C)nc2ccc(C(=O)O)cc21` [Compound 245B, 2-{[(2S)-4-{6-[(4-chloro-2-fluorobenzyl)oxy]pyridin-2-yl}-2-methylpiperazin-1-yl]methyl}-1-[(4-ethyl-4H-1,2,4-triazol-3-yl)methyl]-1H-benzimidazole-6-carboxylic acid], in assay [1], the EC50 was 1.5 nM and the Emax stood at 74%. In assay [2], this molecule yielded an EC50 of 35 nM and an Emax of 89%.
Consider `Cc1nnc(Cn2c(CN3CCC(c4cccc(OCc5ccc(Cl)cc5F)n4)CC3)nc3ccc(C(=O)O)cc32)n1C` [Compound 244B, 2-[(4-{6-[(4-chloro-2-fluorobenzyl)oxy]pyridin-2-yl}piperidin-1-yl)methyl]-1-[(4,5-dimethyl-4H-1,2,4-triazol-3-yl)methyl]-1H-benzimidazole-6-carboxylic acid], for which, in assay [1], a half-maximal effect (EC50) was put at 31 nM and the Emax was 81%. In assay [2], this molecule showed an EC50 of 460 nM and an Emax of 66%.
For `Cc1cc(Cn2c(CN3CCC(c4cccc(OCc5ccc(Cl)cc5F)n4)CC3)nc3ccc(C(=O)O)cc32)[nH]n1` [Compound 333B, 2-[(4-{6-[(4-chloro-2-fluorobenzyl)oxy]pyridin-2-yl}piperidin-1-yl)methyl]-1-[(3-methyl-1H-pyrazol-5-yl)methyl]-1H-benzimidazole-6-carboxylic acid] the same measures were 0.7 nM, 86%, 10 nM and 89%.
In the case of `O=C(O)c1ccc2nc(CN3CCN(c4cccc(OCc5ccc(Cl)cc5F)n4)CC3)n(C[C@@H]3CCO3)c2n1` [Compound 120B, 2-[(4-{6-[(4-chloro-2-fluorobenzyl)oxy]pyridin-2-yl}piperazin-1-yl)methyl]-3-[(2S)-oxetan-2-ylmethyl]-3H-imidazo[4,5-b]pyridine-5-carboxylic acid], in assay [1], a half-maximal response (EC50) required 47 nM and the Emax worked out at 71%. Further, in assay [2], the EC50 came to 1600 nM and the Emax amounted to 81%.
As for `O=C(O)c1ccc2nc(CN3CCC(c4cccc(OCc5ccc(Cl)cc5F)n4)CC3)n(CCO)c2c1` [Compound 262B, 2-[(4-{6-[(4-chloro-2-fluorobenzyl)oxy]pyridin-2-yl}piperidin-1-yl)methyl]-1-(2-hydroxyethyl)-1H-benzimidazole-6-carboxylic acid], the figures for the EC50 in assay [1] and in assay [2] were 1.6 nM and 28 nM, respectively. Also, the Emax worked out at 83% in assay [1] and 88% in assay [2].
As for `Cn1c(CN2CCC(c3cccc(OCc4ccccc4)n3)CC2)nc2ccc(C(=O)O)cc21` [Compound 221B, 2-((4-(6-(Benzyloxy)pyridin-2-yl)piperidin-1-yl)methyl)-1-methyl-1H-benzo[d]imidazole-6-carboxylic acid], in assay [1], the EC50 was 3.4 nM and the Emax came to 86%. In assay [2], this molecule registered an EC50 of 23 nM and an Emax of 110%.
For `CCn1cnnc1Cn1c(CN2CCC(c3cccc(OCc4ccc(Cl)cc4F)n3)CC2)nc2ccc(C(=O)O)cc21` [Compound 237B, 2-[(4-{6-[(4-chloro-2-fluorobenzyl)oxy]pyridin-2-yl}piperidin-1-yl)methyl]-1-[(4-ethyl-4H-1,2,4-triazol-3-yl)methyl]-1H-benzimidazole-6-carboxylic acid] the same measures were 3.2 nM, 68%, 39 nM and 88%.
For `Cc1n[nH]c(Cn2c(CN3CCC(c4cccc(OCc5ccc(Cl)cc5F)n4)CC3)nc3ccc(C(=O)O)cc32)n1` [Compound 334B, 2-[(4-{6-[(4-chloro-2-fluorobenzyl)oxy]pyridin-2-yl}piperidin-1-yl)methyl]-1-[(3-methyl-1H-1,2,4-triazol-5-yl)methyl]-1H-benzimidazole-6-carboxylic acid], in that order: 30 nM, 73%, 570 nM and 93%.
Take `Cn1nncc1Cn1c(CN2CCC(c3cccc(OCc4ccc(Cl)cc4F)n3)CC2)nc2ccc(C(=O)O)cc21` [Compound 144B, 2-[(4-{6-[(4-chloro-2-fluorobenzyl)oxy]pyridin-2-yl}piperidin-1-yl)methyl]-1-[(1-methyl-1H-1,2,3-triazol-5-yl)methyl]-1H-benzimidazole-6-carboxylic acid]: in assay [1], the EC50 was found to be 5.8 nM and the Emax was found to be 72%. In assay [2], this molecule gave an EC50 of 94 nM and an Emax of 76%.
Regarding `O=C(O)c1ccc2nc(CN3CCC(c4cccc(OCc5ccc(Cl)cc5F)n4)CC3)n(C[C@H]3CCO3)c2n1` [Compound 216B, 2-[(4-{6-[(4-chloro-2-fluorobenzyl)oxy]pyridin-2-yl}piperidin-1-yl)methyl]-3-[(2R)-oxetan-2-ylmethyl]-3H-imidazo[4,5-b]pyridine-5-carboxylic acid], in assay [1], the EC50 stood at 0.47 nM and the Emax came to 77%. Further, in assay [2], it took 5 nM to reach a half-maximal effect (EC50) and the Emax is 94%.
For `O=C(O)c1ccc2nc(CN3CCC(c4cccc(OCc5ccc(Cl)cc5F)n4)CC3)n(Cc3nnc[nH]3)c2c1` [Compound 300B, 2-[(4-{6-[(4-chloro-2-fluorobenzyl)oxy]pyridin-2-yl}piperidin-1-yl)methyl]-1-(4H-1,2,4-triazol-3-ylmethyl)-1H-benzimidazole-6-carboxylic acid] the same measures were 120 nM, 93%, 1300 nM and 96%.
Take `[2H]C([2H])(Oc1cccc(C2CCN(Cc3nc4ccc(C(=O)O)cc4n3C[C@@H]3CCO3)CC2)n1)c1ccc(C#N)cc1F` [Compound 112B, 2-{[4-(6-{[(4-cyano-2-fluorophenyl)(methyl-d2)]oxy}pyridin-2-yl)piperidin-1-yl]methyl}-1-[(2S)-oxetan-2-ylmethyl]-1H-benzimidazole-6-carboxylic acid]: the values for the maximum response (Emax) in assay [1] and in assay [2] were 84% and 70%, respectively.
